# Reference: PMC3264873 (Pharmaceutical Research, 2011)
# Tests used:
# [1] = biological target: T1, OATP1B1 (Homo sapiens, UniProt Q9Y6L6); test: Concentration-dependent inhibition of OATP1B1-mediated atorvastatin uptake; assay type: cell-based
# T1 sequence (Q9Y6L6 1-691): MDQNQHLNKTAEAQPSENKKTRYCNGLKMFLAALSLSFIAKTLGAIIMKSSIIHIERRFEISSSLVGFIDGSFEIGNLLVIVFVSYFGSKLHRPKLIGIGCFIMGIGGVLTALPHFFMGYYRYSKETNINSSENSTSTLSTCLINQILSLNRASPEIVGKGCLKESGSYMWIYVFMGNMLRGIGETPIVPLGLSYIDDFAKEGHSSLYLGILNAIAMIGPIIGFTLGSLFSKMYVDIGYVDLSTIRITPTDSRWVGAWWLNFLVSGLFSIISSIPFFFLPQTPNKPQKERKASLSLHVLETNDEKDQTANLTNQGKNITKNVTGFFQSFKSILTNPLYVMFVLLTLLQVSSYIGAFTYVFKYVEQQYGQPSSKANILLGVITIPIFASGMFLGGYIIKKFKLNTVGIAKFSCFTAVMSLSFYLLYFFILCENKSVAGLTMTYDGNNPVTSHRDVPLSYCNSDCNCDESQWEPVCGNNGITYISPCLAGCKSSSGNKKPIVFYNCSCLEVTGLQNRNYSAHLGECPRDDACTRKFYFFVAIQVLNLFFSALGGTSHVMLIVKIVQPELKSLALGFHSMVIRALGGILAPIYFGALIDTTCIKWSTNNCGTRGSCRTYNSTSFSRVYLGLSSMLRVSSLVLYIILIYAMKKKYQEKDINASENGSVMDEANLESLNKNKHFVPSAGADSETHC
# [2] = biological target: T1, OATP1B1; test: Calculation of R-values
# [3] = clinical co-administration with the inhibitor; ref [37],[27],[43],[51],[46]; cited from earlier work
# [4] = cited from earlier work
# [5] = ref [3],[23],[24]; cited from earlier work
smiles,measurement,setting,value
Cc1ccc(C)c(OCCCC(C)(C)C(=O)O)c1 [Gemfibrozil],IC50,[1],156 µM
same,Ki,[1],68.1 µM
same,R-value B,"[2]; Eq. 2 (IC50), ka = 0.03, Fa = 1, International Transporter Consortium method",1.05
same,R-value D,"[2]; Eq. 2 (IC50), ka = 0.1, Fa = 1",1.08
same,R-value C,"[2]; Eq. 2 (IC50), ka = 0.1, Fa published value (lopinavir Fa = 1)",1.08
same,R-value F,"[2]; Eq. 3 (Ki), ka = 0.03, Fa = 1",1.11
same,R-value E,"[2]; Eq. 3 (Ki), ka = 0.03, Fa published value (lopinavir Fa = 1)",1.11
same,R-value H,"[2]; Eq. 3 (Ki), ka = 0.1, Fa = 1, Hirano et al. method",1.19
same,R-value G,"[2]; Eq. 3 (Ki), ka = 0.1, Fa published value (lopinavir Fa = 1)",1.19
same,Range of the eight R-values A–H,[2]; all eight calculation variants,1.05–1.19
same,Average (mean) R-value,[2]; mean of the eight R-values A–H,1.11
same,Fold AUC change Atorvastatin,[3],1.2 fold
same,"Imax, maximum systemic plasma concentration of the inhibitor","[4]; amprenavir recalculated from fosamprenavir data, ref [23]–[28]",99.9 µM
same,"Fa, fraction of the inhibitor dose absorbed (maximum oral bioavailability)",[4]; ref [23]–[25],0.98
same,"Fu, fraction of the inhibitor that is unbound",[5],0.05
